{"source": "paper PMC5218480", "about": "(PLoS ONE, 2017)", "system": "MV-4-11 cells", "assay": "Gene expression microarray analysis (Affymetrix PrimeView) and GSEA", "type": "cell-based, human", "set-up": "RFU PODN (11730768_x_at) / Fold change /veh PODN (11730768_x_at) / RFU LINC00158 (11744669_a_at) / Fold change /veh LINC00158 (11744669_a_at) / RFU DUSP10 (11751237_a_at) / Fold change /veh DUSP10 (11751237_a_at) / RFU ID3 (11757404_x_at) / Fold change /veh ID3 (11757404_x_at) / RFU PLEKHG5 (11737974_s_at) / Fold change /veh PLEKHG5 (11737974_s_at) / RFU LRRC4B (11730491_at) / Fold change /veh LRRC4B (11730491_at) / RFU GIMAP4 (11747438_a_at) / Fold change /veh GIMAP4 (11747438_a_at) / RFU KRT8 (11758183_x_at) / Fold change /veh KRT8 (11758183_x_at) / RFU CNN1 (11734310_a_at) / Fold change /veh CNN1 (11734310_a_at) / RFU VPS37D (11726825_at) / Fold change /veh VPS37D (11726825_at) / RFU C10orf10 (11716522_x_at) / Fold change /veh C10orf10 (11716522_x_at) / RFU KIR2DL2 /// KIR2DL4 /// KIR2DL5A /// KIR2DL5B /// KIR2DS1 /// KIR2DS2 /// KIR2DS3 /// KIR2DS4 /// KIR3DL3 /// KIR3DL3 /// KIR3DS1 (11738374_at) / Fold change /veh KIR2DL2 /// KIR2DL4 /// KIR2DL5A /// KIR2DL5B /// KIR2DS1 /// KIR2DS2 /// KIR2DS3 /// KIR2DS4 /// KIR3DL3 /// KIR3DL3 /// KIR3DS1 (11738374_at) / RFU C1QL1 (11718748_at) / Fold change /veh C1QL1 (11718748_at) / RFU TMPRSS4 (11747572_a_at) / Fold change /veh TMPRSS4 (11747572_a_at) / RFU HAMP (11756126_x_at) / Fold change /veh HAMP (11756126_x_at) / RFU RNFT2 (11725882_a_at) / Fold change /veh RNFT2 (11725882_a_at) / RFU NR4A2 (11747474_a_at) / Fold change /veh NR4A2 (11747474_a_at) / RFU ABCC12 (11746883_a_at) / Fold change /veh ABCC12 (11746883_a_at) / RFU TMEM136 (11760407_x_at) / Fold change /veh TMEM136 (11760407_x_at) / RFU CLDN22 /// WWC2 (11732394_at) / Fold change /veh CLDN22 /// WWC2 (11732394_at) / RFU HLA-DPB1 (11760878_x_at) / Fold change /veh HLA-DPB1 (11760878_x_at) / RFU SPINT1 (11716480_a_at) / Fold change /veh SPINT1 (11716480_a_at) / RFU GAP43 (11754022_s_at) / Fold change /veh GAP43 (11754022_s_at) / RFU A4GNT (11735810_at) / Fold change /veh A4GNT (11735810_at) / RFU PRB3 (11715151_x_at) / Fold change /veh PRB3 (11715151_x_at) / RFU TUBB4B (11761932_at) / Fold change /veh TUBB4B (11761932_at) / RFU CAPN14 (11732068_a_at) / Fold change /veh CAPN14 (11732068_a_at) / RFU TMCC2 (11721928_a_at) / Fold change /veh TMCC2 (11721928_a_at) / RFU IRGQ (11745062_a_at) / Fold change /veh IRGQ (11745062_a_at) / RFU FAM174B (11720279_a_at) / Fold change /veh FAM174B (11720279_a_at) / RFU TMPRSS4 (11748680_a_at) / Fold change /veh TMPRSS4 (11748680_a_at) / RFU FAM212B (11763350_a_at) / Fold change /veh FAM212B (11763350_a_at) / RFU PLEKHG5 (11743358_a_at) / Fold change /veh PLEKHG5 (11743358_a_at) / RFU ZSCAN30 (11745921_a_at) / Fold change /veh ZSCAN30 (11745921_a_at) / RFU CMKLR1 (11741424_a_at) / Fold change /veh CMKLR1 (11741424_a_at) / RFU LOC101060620 /// MAPK8IP1 (11723275_at) / Fold change /veh LOC101060620 /// MAPK8IP1 (11723275_at) / RFU SPTSSB (11747773_x_at) / Fold change /veh SPTSSB (11747773_x_at) / RFU PRSS12 (11739890_at) / Fold change /veh PRSS12 (11739890_at) / RFU BIN1 (11741810_x_at) / Fold change /veh BIN1 (11741810_x_at) / RFU WNT11 (11732464_a_at) / Fold change /veh WNT11 (11732464_a_at) / RFU C10orf10 (11716521_a_at) / Fold change /veh C10orf10 (11716521_a_at) / RFU C5orf56 (11738089_at) / Fold change /veh C5orf56 (11738089_at) / RFU CYB561 (11721691_x_at) / Fold change /veh CYB561 (11721691_x_at) / RFU ANKRD19P (11752326_a_at) / Fold change /veh ANKRD19P (11752326_a_at) / RFU OR2T12 /// OR2T33 /// OR2T8 (11738714_s_at) / Fold change /veh OR2T12 /// OR2T33 /// OR2T8 (11738714_s_at) / RFU VCAN (11748164_a_at) / Fold change /veh VCAN (11748164_a_at) / RFU JSRP1 (11732532_at) / Fold change /veh JSRP1 (11732532_at) / RFU KRTAP10-11 (11738290_x_at) / Fold change /veh KRTAP10-11 (11738290_x_at) / RFU MYO3A (11730013_a_at) / Fold change /veh MYO3A (11730013_a_at) / RFU EBF3 (11725865_a_at) / Fold change /veh EBF3 (11725865_a_at) / RFU CAMK2N1 (11719241_x_at) / Fold change /veh CAMK2N1 (11719241_x_at) / RFU C5orf56 (11738088_a_at) / Fold change /veh C5orf56 (11738088_a_at) / RFU OLFML3 (11715873_a_at) / Fold change /veh OLFML3 (11715873_a_at) / RFU LOC100653217 /// NTM (11731650_a_at) / Fold change /veh LOC100653217 /// NTM (11731650_a_at) / RFU MAPK11 (11762145_a_at) / Fold change /veh MAPK11 (11762145_a_at) / RFU FIZ1 (11724087_x_at) / Fold change /veh FIZ1 (11724087_x_at) / RFU OASL (11726364_x_at) / Fold change /veh OASL (11726364_x_at) / RFU SOX15 (11748057_x_at) / Fold change /veh SOX15 (11748057_x_at) / RFU CD79A (11719716_a_at) / Fold change /veh CD79A (11719716_a_at) / RFU HIST1H1D (11736915_at) / Fold change /veh HIST1H1D (11736915_at) / RFU CASKIN2 (11723855_a_at) / Fold change /veh CASKIN2 (11723855_a_at) / RFU LOC730098 (11760151_x_at) / Fold change /veh LOC730098 (11760151_x_at) / RFU OR4N2 (11742367_at) / Fold change /veh OR4N2 (11742367_at) / RFU PRRT2 (11749266_a_at) / Fold change /veh PRRT2 (11749266_a_at) / RFU SNX32 (11753110_a_at) / Fold change /veh SNX32 (11753110_a_at) / RFU CDHR5 (11726645_a_at) / Fold change /veh CDHR5 (11726645_a_at) / RFU RCAN1 (11760418_a_at) / Fold change /veh RCAN1 (11760418_a_at) / RFU FAM167A (11723789_a_at) / Fold change /veh FAM167A (11723789_a_at) / RFU FAM26E (11764081_at) / Fold change /veh FAM26E (11764081_at) / RFU ISYNA1 (11749810_s_at) / Fold change /veh ISYNA1 (11749810_s_at) / RFU ACY1 (11761880_at) / Fold change /veh ACY1 (11761880_at) / RFU 11764098_at / Fold change /veh 11764098_at / RFU SAMD14 (11745864_x_at) / Fold change /veh SAMD14 (11745864_x_at) / RFU NPB (11741838_a_at) / Fold change /veh NPB (11741838_a_at) / RFU TMPRSS6 (11731388_a_at) / Fold change /veh TMPRSS6 (11731388_a_at) / RFU KRTAP10-2 (11738614_at) / Fold change /veh KRTAP10-2 (11738614_at) / RFU ARHGAP8 /// PRR5-ARHGAP8 (11727945_x_at) / Fold change /veh ARHGAP8 /// PRR5-ARHGAP8 (11727945_x_at) / RFU KRTAP5-7 /// NADSYN1 (11734609_at) / Fold change /veh KRTAP5-7 /// NADSYN1 (11734609_at) / RFU RASL12 (11751679_a_at) / Fold change /veh RASL12 (11751679_a_at) / RFU CDKN2B (11736163_a_at) / Fold change /veh CDKN2B (11736163_a_at) / RFU PRF1 (11729649_at) / Fold change /veh PRF1 (11729649_at) / RFU, ZNF638 /// ZNF638-IT1 / Fold change vs veh, ZNF638 /// ZNF638-IT1 / RFU, PANK3 / Fold change vs veh, PANK3 / RFU, SH3YL1 / Fold change vs veh, SH3YL1 / RFU, ZEB2 / Fold change vs veh, ZEB2 / RFU, NRIP1 / Fold change vs veh, NRIP1 / RFU, PTTG1IP / Fold change vs veh, PTTG1IP / RFU, CAPN2 / Fold change vs veh, CAPN2 / RFU, MED14 / Fold change vs veh, MED14 / RFU, SNORA58 / Fold change vs veh, SNORA58 / RFU, C1orf63 / Fold change vs veh, C1orf63 / RFU, LRRFIP1 / Fold change vs veh, LRRFIP1 / RFU, NDUFAF7 / Fold change vs veh, NDUFAF7 / RFU, SLC12A2 / Fold change vs veh, SLC12A2 / RFU, IBTK / Fold change vs veh, IBTK / RFU, ESF1 / Fold change vs veh, ESF1 / Fold change vs veh, TMEM50B / RFU, TAOK1 / Fold change vs veh, TAOK1 / RFU, ACBD3 / Fold change vs veh, ACBD3 / RFU, TMA16 / Fold change vs veh, TMA16 / RFU, RWDD3 / Fold change vs veh, RWDD3 / RFU, BCAT1 / Fold change vs veh, BCAT1 / RFU, EDEM3 / Fold change vs veh, EDEM3 / RFU, TMEM33 / Fold change vs veh, TMEM33 / RFU, WDR75 / Fold change vs veh, WDR75 / RFU, AHCTF1 / Fold change vs veh, AHCTF1 / RFU, TFRC / Fold change vs veh, TFRC / RFU, ZDHHC17 / Fold change vs veh, ZDHHC17 / RFU, NOM1 / Fold change vs veh, NOM1 / RFU, ARL8B / Fold change vs veh, ARL8B / RFU, ZBTB11 / Fold change vs veh, ZBTB11 / RFU, TAMM41 / Fold change vs veh, TAMM41 / RFU, KIAA1704 /// LOC100996395 / Fold change vs veh, KIAA1704 /// LOC100996395 / RFU, ING1 / Fold change vs veh, ING1 / RFU, TRMT61B / Fold change vs veh, TRMT61B / RFU, FUBP3 / Fold change vs veh, FUBP3 / RFU, TP53 / Fold change vs veh, TP53 / RFU, TNKS2 / Fold change vs veh, TNKS2 / RFU, ZFP14 / Fold change vs veh, ZFP14 / RFU, ACTR2 / Fold change vs veh, ACTR2 / RFU, PPP3R1 / Fold change vs veh, PPP3R1 / RFU, PIK3R1 / Fold change vs veh, PIK3R1 / RFU, HNRNPA1 / Fold change vs veh, HNRNPA1 / RFU, RNF170 / Fold change vs veh, RNF170 / RFU, ZNF28 / Fold change vs veh, ZNF28 / RFU, RNGTT / Fold change vs veh, RNGTT / RFU, OGT / Fold change vs veh, OGT / RFU, BRD1 / Fold change vs veh, BRD1 / RFU, MARS / Fold change vs veh, MARS / RFU, ZNF655 / Fold change vs veh, ZNF655 / RFU, FAHD1 / Fold change vs veh, FAHD1 / RFU, BDP1 / Fold change vs veh, BDP1 / RFU, LRRCC1 / Fold change vs veh, LRRCC1 / RFU, ARID1A / Fold change vs veh, ARID1A / RFU, ZNF146 / Fold change vs veh, ZNF146 / RFU, ZNF330 / Fold change vs veh, ZNF330 / RFU, GPN3 / Fold change vs veh, GPN3 / RFU, C9orf123 / Fold change vs veh, C9orf123 / RFU, N4BP2L2 / Fold change vs veh, N4BP2L2 / RFU, ARFIP1 / Fold change vs veh, ARFIP1 / RFU, FAM179B / Fold change vs veh, FAM179B / RFU, BCL10 / Fold change vs veh, BCL10 / RFU, UHRF1BP1L / Fold change vs veh, UHRF1BP1L / RFU, BET1 / Fold change vs veh, BET1 / RFU, CNOT2 / Fold change vs veh, CNOT2 / RFU, ZNF268 / Fold change vs veh, ZNF268 / Fold change vs veh, ZNF507 / RFU, DGCR2 / Fold change vs veh, DGCR2 / RFU, WDSUB1 / Fold change vs veh, WDSUB1 / Fold change vs veh, HSP90B1 /// MIR3652 / RFU, ADSS / Fold change vs veh, ADSS / RFU, GK / Fold change vs veh, GK / RFU, ZNF148 / Fold change vs veh, ZNF148 / RFU, TAF9 / Fold change vs veh, TAF9 / RFU, SLC1A5 / Fold change vs veh, SLC1A5 / RFU, SLMO2 / Fold change vs veh, SLMO2 / RFU, ABCC4 / Fold change vs veh, ABCC4 / RFU, LOC101060439 /// RAP1B / Fold change vs veh, LOC101060439 /// RAP1B / RFU, RFX7 / Fold change vs veh, RFX7 / RFU, GTPBP10 / Fold change vs veh, GTPBP10 / RFU, CNEP1R1 / Fold change vs veh, CNEP1R1 / RFU, BIVM-ERCC5 /// ERCC5 / Fold change vs veh, BIVM-ERCC5 /// ERCC5 / RFU, ILF3 / Fold change vs veh, ILF3 / RFU 11762660_at / Fold change /veh 11762660_at / RFU VCAN (11757783_s_at) / Fold change /veh VCAN (11757783_s_at) / RFU DDX43 (11728927_at) / Fold change /veh DDX43 (11728927_at) / RFU KRT8 (11758188_x_at) / Fold change /veh KRT8 (11758188_x_at) / RFU NKD1 (11759106_at) / Fold change /veh NKD1 (11759106_at) / RFU SRD5A1 (11742802_a_at) / Fold change /veh SRD5A1 (11742802_a_at) / RFU TPSAB1 /// TPSB2 (11721975_s_at) / Fold change /veh TPSAB1 /// TPSB2 (11721975_s_at) / RFU GSTM3 (11746129_a_at) / Fold change /veh GSTM3 (11746129_a_at) / RFU IL23R (11737362_x_at) / Fold change /veh IL23R (11737362_x_at) / RFU TMEM51 (11727254_a_at) / Fold change /veh TMEM51 (11727254_a_at) / RFU PIWIL2 (11732686_x_at) / Fold change /veh PIWIL2 (11732686_x_at) / RFU ORM1 (11744905_x_at) / Fold change /veh ORM1 (11744905_x_at) / RFU CCDC152 (11743942_at) / Fold change /veh CCDC152 (11743942_at) / RFU ECM1 (11717891_a_at) / Fold change /veh ECM1 (11717891_a_at) / RFU IL23R (11748794_a_at) / Fold change /veh IL23R (11748794_a_at) / RFU TNFAIP8L3 (11732012_x_at) / Fold change /veh TNFAIP8L3 (11732012_x_at) / RFU MBOAT4 (11741988_at) / Fold change /veh MBOAT4 (11741988_at) / RFU 11764193_at / Fold change /veh 11764193_at / RFU TMEM53 (11763286_at) / Fold change /veh TMEM53 (11763286_at) / RFU MAGEB2 (11727129_at) / Fold change /veh MAGEB2 (11727129_at) / RFU TMEM200A (11744735_a_at) / Fold change /veh TMEM200A (11744735_a_at) / RFU CCDC152 (11751479_a_at) / Fold change /veh CCDC152 (11751479_a_at) / RFU FAM211A (11726209_a_at) / Fold change /veh FAM211A (11726209_a_at) / RFU RGS16 (11746705_a_at) / Fold change /veh RGS16 (11746705_a_at) / RFU VCAN (11755009_s_at) / Fold change /veh VCAN (11755009_s_at) / RFU RHOB (11743442_s_at) / Fold change /veh RHOB (11743442_s_at) / RFU RGS16 (11720943_a_at) / Fold change /veh RGS16 (11720943_a_at) / RFU RGS16 (11720944_at) / Fold change /veh RGS16 (11720944_at) / RFU, VPS4B / Fold change vs veh, VPS4B / RFU, CREB1 / Fold change vs veh, CREB1 / RFU, DNAJC13 / Fold change vs veh, DNAJC13 / RFU, GNAQ / Fold change vs veh, GNAQ / RFU, CDK5R1 / Fold change vs veh, CDK5R1 / RFU, ZRANB3 / Fold change vs veh, ZRANB3 / RFU, CUL4A / Fold change vs veh, CUL4A / RFU, CCNY / Fold change vs veh, CCNY / RFU, UFL1 / Fold change vs veh, UFL1 / RFU, COG3 / Fold change vs veh, COG3 / RFU, DIAPH2 / Fold change vs veh, DIAPH2 / RFU, SKA2 / Fold change vs veh, SKA2 / RFU, AFF3 / Fold change vs veh, AFF3 / RFU, LMF1 / Fold change vs veh, LMF1 / RFU, IPO11 / Fold change vs veh, IPO11 / RFU, DFFB / Fold change vs veh, DFFB / RFU, FOXP1 / Fold change vs veh, FOXP1 / RFU, CARD8 / Fold change vs veh, CARD8 / RFU, STRN3 / Fold change vs veh, STRN3 / RFU, ADK / Fold change vs veh, ADK / RFU, RASSF2 / Fold change vs veh, RASSF2 / RFU, WIPF1 / Fold change vs veh, WIPF1 / RFU, LARP1B / Fold change vs veh, LARP1B / RFU, RASA1 / Fold change vs veh, RASA1 / RFU, RB1 / Fold change vs veh, RB1 / RFU, PPFIA1 / Fold change vs veh, PPFIA1 / RFU, MAT2A / Fold change vs veh, MAT2A / RFU, CCT5 / Fold change vs veh, CCT5 / RFU, WDR92 / Fold change vs veh, WDR92 / RFU, CUX1 / Fold change vs veh, CUX1 / RFU, TTC7A / Fold change vs veh, TTC7A / RFU, TMEM135 / Fold change vs veh, TMEM135 / RFU, DEPTOR / Fold change vs veh, DEPTOR / RFU, CPM / Fold change vs veh, CPM / RFU, DNAJB6 / Fold change vs veh, DNAJB6 / RFU, CACNA2D3 / Fold change vs veh, CACNA2D3 / RFU, DTX4 / Fold change vs veh, DTX4 / RFU, TFCP2 / Fold change vs veh, TFCP2 / RFU, GMCL1 /// GMCL1P1 / Fold change vs veh, GMCL1 /// GMCL1P1 / RFU, AEBP2 / Fold change vs veh, AEBP2 / RFU, SNHG1 /// SNORD22 /// SNORD25 /// SNORD26 /// SNORD27 /// SNORD28 /// SNORD29 /// SNORD31 / Fold change vs veh, SNHG1 /// SNORD22 /// SNORD25 /// SNORD26 /// SNORD27 /// SNORD28 /// SNORD29 /// SNORD31 / Fold change (Aza/veh), C12orf56 (ProbeSet 11735607_a_at) / Fold change (ACY-1035/veh), C12orf56 (ProbeSet 11735607_a_at) / Fold change (Aza/veh), FGFR1OP (ProbeSet 11751329_s_at) / Fold change (ACY-1035/veh), FGFR1OP (ProbeSet 11751329_s_at) / Fold change (Aza/veh), VPS36 (ProbeSet 11739960_a_at) / Fold change (ACY-1035/veh), VPS36 (ProbeSet 11739960_a_at) / RFU SYPL1 (11715823_x_at) / Fold change /veh SYPL1 (11715823_x_at) / RFU IGFBP7 (11715501_s_at) / Fold change /veh IGFBP7 (11715501_s_at) / RFU REEP3 (11722064_at) / Fold change /veh REEP3 (11722064_at) / RFU IGLL1 (11728026_x_at) / Fold change /veh IGLL1 (11728026_x_at): dose or concentration left out as unconfirmed", "details": "ProbeSet 11733831_s_at; LIST D"}
{"smiles": "Nc1ccc(-c2cccs2)cc1NC(=O)c1ccc2c(c1)cc(C1CC1)n2CCN1CCOCC1", "note": "[ACY-1035]", "values": [{"measurement": "RFU, GMCL1 /// GMCL1P1", "value": 34.22, "unit": "RFU"}]}
